In US8618289B2 (Ambit Biosciences Corporation, priority 2008, dated 2013):
Counter-ions that a name gives are not always drawn. Like-named read-outs stand apart in the source and are kept apart here.

Assays:
[1] = system: MEK1 phosphorylation in the A375 human melanoma cell line; test: cells; conditions: A-375, read-out: pMEK IC50
[2] = system: A375 cells; test: cells; conditions: Homo sapiens, A-375, read-out: A375 Viability EC50
[3] = biological target: T1, RAF kinases (Homo sapiens, UniProt P15056, V600E); test: biochemical
T1 sequence (P15056 whole entry V600E): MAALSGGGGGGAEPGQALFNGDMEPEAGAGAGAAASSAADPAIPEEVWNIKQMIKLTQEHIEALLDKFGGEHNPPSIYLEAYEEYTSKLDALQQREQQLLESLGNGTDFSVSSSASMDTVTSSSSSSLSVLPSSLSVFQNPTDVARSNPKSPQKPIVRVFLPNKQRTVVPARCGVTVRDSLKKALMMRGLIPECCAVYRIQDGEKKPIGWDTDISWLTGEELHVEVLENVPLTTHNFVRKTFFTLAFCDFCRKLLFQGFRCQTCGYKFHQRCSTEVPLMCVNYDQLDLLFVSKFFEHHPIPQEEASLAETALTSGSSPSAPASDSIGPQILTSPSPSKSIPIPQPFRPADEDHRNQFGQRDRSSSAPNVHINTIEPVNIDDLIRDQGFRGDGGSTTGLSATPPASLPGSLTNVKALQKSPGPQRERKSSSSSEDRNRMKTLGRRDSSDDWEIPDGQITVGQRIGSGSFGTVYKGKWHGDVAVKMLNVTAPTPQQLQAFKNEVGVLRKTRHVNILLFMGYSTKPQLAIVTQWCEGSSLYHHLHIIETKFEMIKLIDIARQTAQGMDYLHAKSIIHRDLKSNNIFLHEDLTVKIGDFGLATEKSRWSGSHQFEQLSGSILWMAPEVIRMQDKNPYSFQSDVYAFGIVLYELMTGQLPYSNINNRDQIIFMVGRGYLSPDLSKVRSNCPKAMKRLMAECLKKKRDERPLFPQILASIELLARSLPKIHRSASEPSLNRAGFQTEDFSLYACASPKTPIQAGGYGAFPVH

[4] = biological target: T1, RAF kinases; conditions: read-out: BRAF V600E Kd; BRAF V600E
[5] = biological target: RAF kinases (Homo sapiens, UniProt P04049); test: biochemical
RAF kinases (Homo sapiens, UniProt P04049), sequence (P04049 whole entry): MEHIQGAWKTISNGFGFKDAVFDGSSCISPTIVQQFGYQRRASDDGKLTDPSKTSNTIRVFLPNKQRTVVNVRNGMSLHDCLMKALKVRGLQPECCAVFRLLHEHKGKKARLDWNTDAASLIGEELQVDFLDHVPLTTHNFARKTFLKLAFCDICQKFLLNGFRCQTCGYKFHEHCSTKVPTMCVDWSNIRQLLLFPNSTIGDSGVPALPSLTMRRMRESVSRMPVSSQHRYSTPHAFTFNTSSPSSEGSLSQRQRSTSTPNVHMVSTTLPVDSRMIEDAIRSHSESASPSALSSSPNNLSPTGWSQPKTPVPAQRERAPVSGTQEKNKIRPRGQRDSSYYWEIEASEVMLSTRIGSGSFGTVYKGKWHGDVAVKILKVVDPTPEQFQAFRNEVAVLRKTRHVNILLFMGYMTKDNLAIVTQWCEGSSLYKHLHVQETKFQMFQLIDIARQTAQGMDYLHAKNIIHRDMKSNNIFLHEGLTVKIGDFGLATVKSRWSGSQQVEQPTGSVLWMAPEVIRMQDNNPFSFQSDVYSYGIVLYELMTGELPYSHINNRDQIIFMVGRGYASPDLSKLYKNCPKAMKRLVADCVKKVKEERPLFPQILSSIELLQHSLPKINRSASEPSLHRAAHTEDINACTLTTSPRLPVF

[6] = biological target: RAF kinases (Homo sapiens, UniProt P15056); test: biochemical
RAF kinases (Homo sapiens, UniProt P15056), sequence (P15056 whole entry): as the sequence (P15056 whole entry V600E) above, with E600V counted along it

SMILES	IC50 [1]	EC50 [2]	Kd [3]	Kd [4]	Kd [5]	Kd [6]
COc1cc2ncnc(Oc3cc(NC(=O)Nc4cc(C(C)(C)C)on4)ccc3Cl)c2cc1OC [Ex 10, 1-(5-tert-butylisoxazol-3-yl)-3-(4-chloro-3-(6,7-dimethoxyquinazolin-4-yloxy)phenyl)urea]	> 1000 nM	> 1000 nM	500 to 1000 nM			
CCOc1cc2ncnc(Oc3cccc(NC(=O)Nc4cc(C(C)(C)C)on4)c3)c2cc1OCC [Ex 13, 1-(5-tert-butylisoxazol-3-yl)-3-[3-(6,7-diethoxyquinazolin-4-yloxy)phenyl]urea hydrochloride]	250 to 500 nM	500 to 1000 nM	250 to 500 nM			
CC(C)(C)c1cc(NC(=O)Nc2cccc(Sc3ncnc4cc(F)c(F)cc34)c2)no1 [Ex 47, 1-(5-tert-butylisoxazol-3-yl)-3-(3-(6,7-difluoroquinazolin-4-ylthio)phenyl)urea]	> 1000 nM	> 1000 nM	500 to 1000 nM			
COc1ccc2c(Sc3cccc(NC(=O)Nc4cc(C(C)(C)C)on4)c3)ncnc2c1 [Ex 48, 1-(5-tert-butylisoxazol-3-yl)-3-(3-(7-methoxyquinazolin-4-ylthio)phenyl)urea]	500 to 1000 nM	> 1000 nM	250 to 500 nM			
CCOc1cc2ncnc(Sc3cccc(NC(=O)Nc4cc(C(C)(C)C)on4)c3)c2cc1OCC [Ex 51, 1-(5-tert-butylisoxazol-3-yl)-3-[3-(6,7-diethoxyquinazolin-4-ylthio)phenyl]urea]	250 to 500 nM	> 1000 nM	500 to 1000 nM			
CC(C)(C)c1cc(NC(=O)Nc2cccc(Sc3ncnc4cc5c(cc34)OCCO5)c2)no1 [Ex 54, 1-(5-tert-butylisoxazol-3-yl)-3-[3-(7,8-dihydro-[1,4]dioxino[2,3-g]quinazolin-4-ylthio)phenyl]urea hydrochloride]	500 to 1000 nM	> 1000 nM	500 to 1000 nM			
COc1cc2c(Oc3cccc(NC(=O)Nc4cc(C(C)(C)C)on4)c3)ncnc2cc1O[C@H]1CCN(CC(F)F)C1 [Ex 103, (S)-1-(5-tert-butylisoxazol-3-yl)-3-(3-{7-[1-(2,2-difluoroethyl)pyrrolidin-3-yloxy]-6-methoxyquinazolin-4-yloxy}phenyl)urea]	500 to 1000 nM	> 1000 nM	250 to 500 nM			
COc1cc2ncnc(Oc3cccc(NC(=O)Nc4cc(C(C)(C)C)on4)c3)c2cc1O[C@H]1CCN(C(=O)OC(C)(C)C)C1 [Ex 108, (S)-tert-butyl 3-(4-(3-(3-(5-tert-butylisoxazole-3-yl)ureido)phenoxy)-7-methoxyquinazolin-6-yloxy)pyrrolidine-1-carboxylate]	< 250 nM	500 to 1000 nM	500 to 1000 nM			
COCC(C)(C)c1cc(NC(=O)Nc2cccc(Oc3ncnc4cc(OC)c(OC)cc34)c2)no1 [Ex 130, 1-(3-(6,7-dimethoxyquinazolin-4-yloxy)phenyl)-3-(5-(1-methoxy-2-methylpropan-2-yl)isoxazol-3-yl)urea]	250 to 500 nM	> 1000 nM	250 to 500 nM			
COCCOc1cc(NC(=O)Nc2cccc(Sc3ncnc4cc(OC)c(OC)cc34)c2)ccc1C(F)(F)F [Ex 148, 1-(3-(6,7-dimethoxyquinazolin-4-ylthio)phenyl)-3-(3-(2-methoxyethoxy)-4-(trifluoromethyl)phenyl)urea]	> 1000 nM	> 1000 nM	500 to 1000 nM			
COc1cc2ncnc(Oc3cccc(NC(=O)Nc4cc(C(C)(C)C)nn4-c4ccccc4)c3)c2cc1OC [Ex 153, 1-(3-tert-butyl-1-phenyl-1H-pyrazol-5-yl)-3-(3-(6,7-dimethoxyquinazolin-4-yloxy)phenyl)urea]	< 250 nM		500 to 1000 nM			
CCOc1cc2ncnc(Oc3cccc(NC(=O)Nc4cc(C(F)(F)F)nn4-c4ccccc4)c3)c2cc1OC [Example 384, 1-(3-(7-ethoxy-6-methoxyquinazolin-4-yloxy)phenyl)-3-(1-phenyl-3-(trifluoromethyl)-1H-pyrazol-5-yl)urea]	500 to 1000 nM	250 to 500 nM		< 250 nM	250 to 500 nM	500 to 1000 nM
